From PubChem BioAssay AID1919003 (Molecular Pharmacology Branch, DTP, NCI, 2023)

System: 786-0 complex spheroids with HUVEC/MSC, growth % test/control
Assay: Anticancer human tumor 786-0 cell line growth inhibition [AhR];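 note: compound exposure lasted seven days before the read-out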
Details: for IC50: curve of first compound; for viability, T/C: stronger effect = lower value
Procedure, shortened: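 Spheroids combined tumor cells with HUVEC endothelial cells and human MSCs as stroma. AhR antagonists were paired with standard or investigational drugs, each dosed in half-log steps down from near clinical Cmax, or from 10 microM where Cmax was unknown.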

[1] = second compound 0.1 µM, first compound 0.00949 µM
[2] = second compound 0.1 µM, first compound 0.03 µM
[3] = second compound 0.1 µM, first compound 0.0949 µM
[4] = second compound 0.1 µM, first compound 0.3 µM
[5] = second compound 0.316 µM, first compound 0.00949 µM
[6] = second compound 0.316 µM, first compound 0.03 µM
[7] = second compound 0.316 µM, first compound 0.0949 µM
[8] = second compound 0.316 µM, first compound 0.3 µM
[9] = second compound 1 µM, first compound 0.00949 µM
[10] = second compound 1 µM, first compound 0.03 µM
[11] = second compound 1 µM, first compound 0.0949 µM
[12] = second compound 1 µM, first compound 0.3 µM
[13] = second compound 3.16 µM, first compound 0.00949 µM
[14] = second compound 3.16 µM, first compound 0.03 µM
[15] = second compound 3.16 µM, first compound 0.0949 µM
[16] = second compound 3.16 µM, first compound 0.3 µM
[17] = second compound 10 µM, first compound 0.00949 µM
[18] = second compound 10 µM, first compound 0.03 µM
[19] = second compound 10 µM, first compound 0.0949 µM
[20] = second compound 10 µM, first compound 0.3 µM

For `CCN(c1cc(-c2ccc(CN3CCOCC3)cc2)cc(C(=O)NCc2c(C)cc(C)[nH]c2=O)c1C)C1CCOCC1` + CC(CO)NC(=O)c1cc(-c2ccc(Cl)cc2)nn(-c2cnn(C)c2)c1=O, the IC50 (second compound 0.1 µM) was greater than 3000 nM, the IC50 (second compound 0.316 µM) was greater than 3000 nM and the IC50 (second compound 1 µM) was greater than 3000 nM. For the same molecule, the IC50 (second compound 3.16 µM) was greater than 3000 nM, the IC50 (second compound 10 µM) was greater than 3000 nM and the viability, T/C [1] was 90.2%. For the same molecule, the viability, T/C [2] was 101%, the viability, T/C [3] was 93.5% and the viability, T/C [4] was 106%. For the same molecule, the viability, T/C (second compound 0.1 µM, first compound 0.949 µM) was 98.7%, the viability, T/C (second compound 0.1 µM, first compound 3 µM) was 102% and the viability, T/C [5] was 108%. The viability, T/C [6] was 107%, the viability, T/C [7] was 103% and the viability, T/C [8] was 101%. The viability, T/C (second compound 0.316 µM, first compound 0.949 µM) was 103%, the viability, T/C (second compound 0.316 µM, first compound 3 µM) was 98.4% and the viability, T/C [9] was 98.8%. For the same molecule, the viability, T/C [10] was 102%, the viability, T/C [11] was 101% and the viability, T/C [12] was 109%. The viability, T/C (second compound 1 µM, first compound 0.949 µM) was 110%, the viability, T/C (second compound 1 µM, first compound 3 µM) was 96.6% and the viability, T/C [13] was 101%. For the same molecule, the viability, T/C [14] was 97.5%, the viability, T/C [15] was 106% and the viability, T/C [16] was 102%. The viability, T/C (second compound 3.16 µM, first compound 0.949 µM) was 112%, the viability, T/C (second compound 3.16 µM, first compound 3 µM) was 98.5% and the viability, T/C [17] was 105%. The viability, T/C [18] was 110%, the viability, T/C [19] was 102% and the viability, T/C [20] was 116%. It also gave a viability, T/C (second compound 10 µM, first compound 0.949 µM) of 116% and a viability, T/C (second compound 10 µM, first compound 3 µM) of 106%.

Molecule `Nc1ncn(C2CC(O)C(CO)S2)c(=O)n1` (stereo not given) + CC(CO)NC(=O)c1cc(-c2ccc(Cl)cc2)nn(-c2cnn(C)c2)c1=O has an IC50 (second compound 0.1 µM) greater than 300 nM, an IC50 (second compound 0.316 µM) greater than 300 nM and an IC50 (second compound 1 µM) greater than 300 nM. The IC50 (second compound 3.16 µM) was greater than 300 nM, the IC50 (second compound 10 µM) was greater than 300 nM and the viability, T/C (second compound 0.1 µM, first compound 0.000949 µM) was 102%. It also gave a viability, T/C (second compound 0.1 µM, first compound 0.003 µM) of 97.3%, a viability, T/C [1] of 99.8% and a viability, T/C [2] of 102%. The viability, T/C [3] was 92.3%, the viability, T/C [4] was 67.2% and the viability, T/C (second compound 0.316 µM, first compound 0.000949 µM) was 101%. For the same molecule, the viability, T/C (second compound 0.316 µM, first compound 0.003 µM) was 109%, the viability, T/C [5] was 109% and the viability, T/C [6] was 107%. For the same molecule, the viability, T/C [7] was 94.8%, the viability, T/C [8] was 64.7% and the viability, T/C (second compound 1 µM, first compound 0.000949 µM) was 104%. The viability, T/C (second compound 1 µM, first compound 0.003 µM) was 115%, the viability, T/C [9] was 111% and the viability, T/C [10] was 102%. The viability, T/C [11] was 97.9%, the viability, T/C [12] was 63.1% and the viability, T/C (second compound 3.16 µM, first compound 0.000949 µM) was 122%. For the same molecule, the viability, T/C (second compound 3.16 µM, first compound 0.003 µM) was 108%, the viability, T/C [13] was 115% and the viability, T/C [14] was 108%. It also gave a viability, T/C [15] of 92.6%, a viability, T/C [16] of 66.4% and a viability, T/C (second compound 10 µM, first compound 0.000949 µM) of 118%. The viability, T/C (second compound 10 µM, first compound 0.003 µM) was 116%, the viability, T/C [17] was 117% and the viability, T/C [18] was 123%. The viability, T/C [19] was 119% and the viability, T/C [20] was 68.1%.
